Measurements: patent US9045466B2, “Amidine compound or salt thereof” (priority 2011, dated 2015)
In brackets after ≈: the same amount, converted by molar mass. Counter-ions that a name gives are not always drawn.

system: Trichophyton rubrum NBRC 5467; test: Fungal susceptibility test, broth microdilution method (MIC); format: cell-based; conditions: NBRC5467, 96 h, RPMI/MOPS pH 7.0, 35° C. for 4 days, visual, lowest concentration with approximately 80% growth inhibition, read-out: MIC (μg/mL) T. rubrum NBRC5467
Experimental: The fungal susceptibility tests on test substances were conducted by the broth microdilution method equivalent to Clinical and Laboratory Standards Institute method. The medium used in the susceptibility tests was RPMI1640 adjusted to pH 7.0 with 0.165 mol/L morpholinepropanesulfonic acid (MOPS) and 50% sodium hydroxide (RPMI/MOPS). Each test substance was dissolved in DMSO and serially diluted in 2-fold increments with DMSO on a 96-well microplate. Then, the dilutions were dispensed by 1 μL to a 96-well microplate. Candida albicans TIMM 1623 cultured overnight at 35° C. in Sabouraud's agar medium was suspended in sterile saline. The number of cells was counted under a biological microscope, and the fungal suspension was diluted with RPMI/MOPS to prepare the inoculum solution (approximately 1×10^3 cells/mL). Alternatively, Candida albicans TIMM 1623 stored at −80° C. was diluted with RPMI/MOPS to prepare the inoculum solution (approximately 1×10^3 CFU/mL). Aspergillus fumigatus TIMM 0063 stored at 5° C. was diluted with RPMI/MOPS to prepare the inoculum solution (approximately 1×10^4 CFU/mL). Trichophyton rubrum NBRC 5467 stored at 5° C. or −80° C. was diluted with RPMI/MOPS to prepare the inoculum solution (approximately 2×10^3 CFU/mL). The 199 μL of inoculum solution was dispensed to each well to prepare the microplate containing the designated concentrations of test substance, medium and fungal cells. Candida albicans and Aspergillus fumigatus were cultured at 35° C. for 2 days. Trichophyton rubrum was cultured at 35° C. for 4 days. After the completion of culture, MIC was determined by visual observation. The MICs of Candida albicans and Aspergillus fumigatus were set to the lowest concentration at which approximately 50% growth inhibition was seen, when compared with a growth control without the addition of the test substance. The MIC of Trichophyton rubrum was set to the lowest concentration at which approximately 80% growth inhibition was seen, when compared with a growth control without the addition of the test substance.

Structure (SMILES)	MIC [µg/mL]
CCN(C)/C=N/c1cc(C)c(Cc2nc(OC(C)C)cs2)cc1C [Example 32, N′-(2,5-Dimethyl-4-{[4-(propan-2-yloxy)-1,3-thiazol-2-yl]methyl}phenyl)-N-ethyl-N-methylimidoformamide]	0.0039 (≈ 0.0113 µM)
CCN(C)/C=N/c1cc(C)c(Cc2nc(-c3ccc(S(C)(=O)=O)cc3)cs2)cc1C [Example 23, N′-[2,5-Dimethyl-4-{4-[4-(methylsulfonyl)phenyl]-1,3-thiazol-2-yl}methyl)phenyl]-N-ethyl-N-methylimidoformamide dihydrochloride]	0.0039
CCN(C)/C=N/c1cc(C)c(Cc2nc(C(=O)NC(C)(C)CC)cs2)cc1C [Example 86, 2-[4-({(E)-[Ethyl(methyl)amino]methylidene}amino)-2,5-dimethylbenzyl]-N-(2-methylbutan-2-yl)-1,3-thiazole-4-carboxamide]	0.0039 (≈ 0.00974 µM)
CCN(C)/C=N/c1cc(C)c(Cc2nc(-c3ccc4c(c3)CNC4=O)cs2)cc1C [Example 89, N′-(2,5-Dimethyl-4-{[4-(1-oxo-2,3-dihydro-1H-isoindol-5-yl)-1,3-thiazol-2-yl]methyl}phenyl)-N-ethyl-N-methylimidoformamide]	0.0625 (≈ 0.149 µM)
COC(=O)CN(C)/C=N/c1cc(C)c(Cc2nc(-c3ccc(C)cc3)cs2)cc1C [Example 7, Methyl N-{(E)-[(2,5-dimethyl-4-{[4-(4-methylphenyl)-1,3-thiazol-2-yl]methyl}phenyl)imino]methyl}-N-methylglycinate]	0.25 (≈ 0.593 µM)
CCN(C)/C=N/c1cc(C)c(Cc2nc(NC(=O)OC(C)C)cs2)cc1C [Example 102, Propan-2-yl {2-[4-({(E)-[ethyl(methyl)amino]methylidene}amino)-2,5-dimethylbenzyl]-1,3-thiazol-4-yl}carbamate]	0.0078 (≈ 0.0201 µM)
CCN(C)/C=N/c1cc(C)c(Cc2nc(C3CCOCC3)cs2)cc1C [Example 81, N′-(2,5-Dimethyl-4-{[4-(tetrahydro-2H-pyran-4-yl)-1,3-thiazol-2-yl]methyl}phenyl)-N-ethyl-N-methylimidoformamide]	0.0156 (≈ 0.042 µM)
CCN(C)/C=N/c1cc(C)c(Cc2nc(-c3ccc(C(=O)NC)cc3)cs2)cc1C [Example 41, 4-{2-[4-({(E)-[Ethyl(methyl)amino]methylidene}amino)-2,5-dimethylbenzyl]-1,3-thiazol-4-yl}-N-methylbenzamide]	0.0078 (≈ 0.0185 µM)
CCN(C)/C=N/c1cc(C)c(Cc2nc(-c3ccc(C(=O)N4CCC4)cc3)cs2)cc1C [Example 101, N′-[4-({4-[4-(Azetidin-1-ylcarbonyl)phenyl]-1,3-thiazol-2-yl}methyl)-2,5-dimethylphenyl]-N-ethyl-N-methylimidoformamide]	0.0625 (≈ 0.14 µM)
CN/C=N/c1cc(C)c(Cc2nc(-c3ccc(C(=O)NC)cc3)cs2)cc1C [Example 95, 4-[2-(2,5-Dimethyl-4-{[(E)-(methylamino)methylidene]amino}benzyl)-1,3-thiazol-4-yl]-N-methylbenzamide]	0.125 (≈ 0.318 µM)
CCN(C)/C=N/c1cc(C)c(Cc2nc(C(=O)NC3CCCC3)cs2)cc1C [Example 74, N-Cyclopentyl-2-[4-({(E)-[ethyl(methyl)amino]methylidene}amino)-2,5-dimethylbenzyl]-1,3-thiazole-4-carboxamide]	0.0156 (≈ 0.0391 µM)
CCN(C)/C=N/c1cc(C)c(Cc2nc(C(O)c3ccc(Cl)cc3)cs2)cc1C (centres unmarked) [Example 38, N′-[4-({4-[(4-Chlorophenyl)(hydroxy)methyl]-1,3-thiazol-2-yl}methyl)-2,5-dimethylphenyl]-N-ethyl-N-methylimidoformamide]	0.0078 (≈ 0.0182 µM)
CCN(C)/C=N/c1cc(C)c(Cc2nc(C3CCC(C(=O)NC)CC3)cs2)cc1C (centres unmarked) [Example 87, 4-{2-[4-({(E)-[Ethyl(methyl)amino]methylidene}amino)-2,5-dimethylbenzyl]-1,3-thiazol-4-yl}-N-methylcyclohexanecarboxamide]	0.0156 (≈ 0.0366 µM)

same assay, conditions: NBRC5467, 96 h, pH 7, read-out: MIC (μg/mL) T. rubrum NBRC5467

Structure (SMILES)	MIC [µg/mL]
CCN(C)/C=N/c1cc(C)c(Cc2nc(-c3ccccc3)c(C(=O)c3ccccc3)s2)cc1C [Example 25, N′-(2,5-Dimethyl-4-{[4-phenyl-5-(phenylcarbonyl)-1,3-thiazol-2-yl]methyl}phenyl)-N-ethyl-N-methylimidoformamide dihydrochloride]	0.0313
CCN(C)/C=N/c1cc(C)c(Cc2nc(NC(=O)OC3CCCCC3)cs2)cc1C [Example 97, Cyclohexyl {2-[4-({(E)-[ethyl(methyl)amino]methylidene}amino)-2,5-dimethylbenzyl]-1,3-thiazol-4-yl}carbamate hydrochloride]	0.0078
CCN(C)/C=N/c1cc(C)c(Cc2nc(COC(C)=O)cs2)cc1C [Example 34, {2-[4-({(E)-[Ethyl(methyl)amino]methylidene}amino)-2,5-dimethylbenzyl]-1,3-thiazol-4-yl}methyl acetate dihydrochloride]	0.0313
CCN(C)/C=N/c1cc(C)c(Cc2nc(-c3cncc(F)c3)cs2)cc1C [Example 21, N-Ethyl-N′-(4-{[4-(5-fluoropyridin-3-yl)-1,3-thiazol-2-yl]methyl}-2,5-dimethylphenyl)-N-methylimidoformamide trihydrochloride]	0.0156
CCOC(=O)c1csc(Cc2cc(C)c(/N=C/N(C)CC)cc2C)n1 [Example 35, Ethyl 2-[4-({(E)-[ethyl(methyl)amino]methylidene}amino)-2,5-dimethylbenzyl]-1,3-thiazole-4-carboxylate]	0.0313 (≈ 0.0871 µM)
CCN(C)/C=N/c1cc(C)c(Cc2nc(COC(C)C)cs2)cc1C [Example 63, N′-[2,5-Dimethyl-4-({4-[(propan-2-yloxy)methyl]-1,3-thiazol-2-yl}methyl)phenyl]-N-ethyl-N-methylimidoformamide dihydrochloride]	0.0156
CCN/C=N/c1cc(C)c(Cc2nc(-c3cnc(C)cn3)cs2)cc1C [Example 105, N′-(2,5-Dimethyl-4-{[4-(5-methylpyrazin-2-yl)-1,3-thiazol-2-yl]methyl}phenyl)-N-ethylimidoformamide hydrochloride]	0.0313
CCN(C)/C=N/c1cc(C)c(Cc2nc(CS(=O)(=O)c3ccc(C)cc3)cs2)cc1C [Example 30, N′-{2,5-Dimethyl-4-[(4-{[(4-methylphenyl)sulfonyl]methyl}-1,3-thiazol-2-yl)methyl]phenyl}-N-ethyl-N-methylimidoformamide dihydrochloride]	0.0625
CCN(C)/C=N/c1cc(C)c(Cc2nc(-c3ccn(C)c(=O)c3)cs2)cc1C [Example 67, N′-(2,5-Dimethyl-4-{[4-(1-methyl-2-oxo-1,2-dihydropyridin-4-yl)-1,3-thiazol-2-yl]methyl}phenyl)-N-ethyl-N-methylimidoformamide dihydrochloride]	0.0625
CCN(C)/C=N/c1cc(C)c(Cc2nc(-c3cnc(C)cn3)cs2)cc1C [Example 37, N′-(2,5-Dimethyl-4-{[4-(5-methylpyrazin-2-yl)-1,3-thiazol-2-yl]methyl}phenyl)-N-ethyl-N-methylimidoformamide dihydrochloride]	0.0039
CCN(C)/C=N/c1cc(C)c(Cc2nc(C(=O)c3ccccc3)cs2)cc1C [Example 19, N′-(2,5-Dimethyl-4-{[4-(phenylcarbonyl)-1,3-thiazol-2-yl]methyl}phenyl)-N-ethyl-N-methylimidoformamide dihydrochloride]	0.0156
CCN(C)/C=N/c1cc(C)c(Cc2nc(-c3ccc(C)cc3)cs2)nc1C [Example 47, N′-(2,5-Dimethyl-6-{[4-(4-methylphenyl)-1,3-thiazol-2-yl]methyl}pyridin-3-yl)-N-ethyl-N-methylimidoformamide dihydrochloride]	0.0313
CCOC(=O)Nc1csc(Cc2cc(C)c(/N=C/N(C)CC)cc2C)n1 [Example 31, Ethyl {2-[4-({(E)-[ethyl(methyl)amino]methylidene}amino)-2,5-dimethylbenzyl]-1,3-thiazol-4-yl}carbamate dihydrochloride]	0.0078
CCN(C)/C=N/c1cc(C)c(Cc2nc(C3CC3)cs2)cc1C [Example 45, N′-{4-[(4-Cyclopropyl-1,3-thiazol-2-yl)methyl]-2,5-dimethylphenyl}-N-ethyl-N-methylimidoformamide dihydrochloride]	0.0313
CCN(C)/C=N/c1cc(C)c(Cc2nc(C(=O)N(C)C3CCCCC3)cs2)cc1C [Example 71, N-Cyclohexyl-2-[4-({(E)-[ethyl(methyl)amino]methylidene}amino)-2,5-dimethylbenzyl]-N-methyl-1,3-thiazole-4-carboxamide hydrochloride]	0.0156
CCN(C)/C=N/c1cc(C)c(Cc2nc(C(=O)NC3CCC(F)(F)CC3)cs2)cc1C [Example 96, N-(4,4-Difluorocyclohexyl)-2-[4-({(E)-[ethyl(methyl)amino]methylidene}amino)-2,5-dimethylbenzyl]-1,3-thiazole-4-carboxamide hydrochloride]	0.0313
